The text below walks through data of patent US12552775B2, “Compounds and uses thereof” (Foghorn Therapeutics Inc., priority 2020, dated 2026).

Assay [1] addresses T1, HiBit-BRG1 fusion protein (Homo sapiens, UniProt P51532).
T1 construct: expressed in transfected cells
In words: HiBiT-BRG1 cell-based degradation assay (Nano-Glo HiBiT Lytic Detection, 24 h). The note with it: stable HeLa cell line expressing HiBit-BRG1 and LgBit, top dose 30 μM, read-out: BRG1 HiBit Degradation Maximum (%). Summed up:
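HeLa cells stably expressing HiBiT-BRG1 plus LgBiT were treated with 10-point 3-fold compound dilutions (top 30 μM final) for 24 h. Lytic Nano-Glo HiBiT luminescence was read. % degradation was normalised between DMSO (high control) and 2 μM of a reference BRM/BRG1 degrader (low control).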
A general note: With HiBiT, luminescence reflects the tagged protein that the partner subunit can reach.

The target in assay [2] is T2, HiBit-BRM fusion protein (Homo sapiens, UniProt P51531).
T2 construct: expressed in transfected cells
T2 sequence (P51531 whole entry, the tested form may be a part): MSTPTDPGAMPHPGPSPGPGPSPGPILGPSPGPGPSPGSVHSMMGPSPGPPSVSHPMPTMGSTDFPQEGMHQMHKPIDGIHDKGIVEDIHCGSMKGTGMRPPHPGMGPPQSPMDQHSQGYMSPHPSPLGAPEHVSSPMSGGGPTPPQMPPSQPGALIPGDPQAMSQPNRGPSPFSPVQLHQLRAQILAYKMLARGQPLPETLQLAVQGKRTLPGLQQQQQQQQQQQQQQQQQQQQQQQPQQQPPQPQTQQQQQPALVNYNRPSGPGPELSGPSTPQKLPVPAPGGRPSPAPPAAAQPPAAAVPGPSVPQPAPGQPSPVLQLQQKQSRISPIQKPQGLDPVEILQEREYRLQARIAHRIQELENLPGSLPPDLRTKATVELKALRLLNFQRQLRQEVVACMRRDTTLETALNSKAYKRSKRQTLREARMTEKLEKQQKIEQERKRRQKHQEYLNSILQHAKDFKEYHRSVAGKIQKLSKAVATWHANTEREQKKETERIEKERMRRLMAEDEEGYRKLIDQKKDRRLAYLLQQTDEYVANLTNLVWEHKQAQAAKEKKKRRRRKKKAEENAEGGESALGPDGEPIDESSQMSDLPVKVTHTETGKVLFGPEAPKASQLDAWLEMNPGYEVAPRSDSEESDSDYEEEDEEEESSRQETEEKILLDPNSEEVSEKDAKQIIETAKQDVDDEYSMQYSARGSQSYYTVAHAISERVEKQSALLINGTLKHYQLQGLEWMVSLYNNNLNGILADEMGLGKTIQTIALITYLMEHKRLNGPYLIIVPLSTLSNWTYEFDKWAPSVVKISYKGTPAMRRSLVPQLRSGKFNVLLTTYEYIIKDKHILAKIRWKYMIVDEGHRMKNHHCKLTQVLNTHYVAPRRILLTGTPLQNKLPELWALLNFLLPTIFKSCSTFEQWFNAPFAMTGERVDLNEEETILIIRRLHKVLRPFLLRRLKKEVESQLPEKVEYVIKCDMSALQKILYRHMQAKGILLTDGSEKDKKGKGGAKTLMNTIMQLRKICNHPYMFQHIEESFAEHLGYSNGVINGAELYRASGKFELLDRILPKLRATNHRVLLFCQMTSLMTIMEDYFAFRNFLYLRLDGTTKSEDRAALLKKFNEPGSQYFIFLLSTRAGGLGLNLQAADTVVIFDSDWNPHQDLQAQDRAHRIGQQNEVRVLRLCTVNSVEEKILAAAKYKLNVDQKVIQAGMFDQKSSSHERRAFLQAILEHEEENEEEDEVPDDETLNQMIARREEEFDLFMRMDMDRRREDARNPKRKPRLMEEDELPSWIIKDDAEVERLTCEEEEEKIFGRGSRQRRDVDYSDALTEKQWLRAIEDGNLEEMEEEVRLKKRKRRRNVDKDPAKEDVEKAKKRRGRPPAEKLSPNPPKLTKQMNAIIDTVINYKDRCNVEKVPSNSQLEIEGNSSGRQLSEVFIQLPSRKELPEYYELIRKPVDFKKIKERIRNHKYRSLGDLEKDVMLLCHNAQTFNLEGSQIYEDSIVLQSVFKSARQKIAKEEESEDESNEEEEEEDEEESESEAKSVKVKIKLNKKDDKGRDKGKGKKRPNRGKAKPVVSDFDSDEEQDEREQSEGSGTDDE
In words: HiBiT-BRM cell-based degradation assay (Nano-Glo HiBiT Lytic Detection, 24 h). The conditions noted are these: stable HeLa cell line expressing HiBiT-BRM, top dose 30 μM. Summed up:
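Percent degradation was scaled between DMSO-treated cells and cells given 2 μM of a known BRM/BRG1 degrader. Readout was NanoBiT luminescence after lytic detection. HeLa cells stably expressing HiBiT-BRM were dosed for 24 h, 10 points, 3-fold steps from 30 μM final, in duplicate.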

Where only a bound is given, the exact number is not on record here.

T1 sequence (P51532 whole entry, the tested form may be a part): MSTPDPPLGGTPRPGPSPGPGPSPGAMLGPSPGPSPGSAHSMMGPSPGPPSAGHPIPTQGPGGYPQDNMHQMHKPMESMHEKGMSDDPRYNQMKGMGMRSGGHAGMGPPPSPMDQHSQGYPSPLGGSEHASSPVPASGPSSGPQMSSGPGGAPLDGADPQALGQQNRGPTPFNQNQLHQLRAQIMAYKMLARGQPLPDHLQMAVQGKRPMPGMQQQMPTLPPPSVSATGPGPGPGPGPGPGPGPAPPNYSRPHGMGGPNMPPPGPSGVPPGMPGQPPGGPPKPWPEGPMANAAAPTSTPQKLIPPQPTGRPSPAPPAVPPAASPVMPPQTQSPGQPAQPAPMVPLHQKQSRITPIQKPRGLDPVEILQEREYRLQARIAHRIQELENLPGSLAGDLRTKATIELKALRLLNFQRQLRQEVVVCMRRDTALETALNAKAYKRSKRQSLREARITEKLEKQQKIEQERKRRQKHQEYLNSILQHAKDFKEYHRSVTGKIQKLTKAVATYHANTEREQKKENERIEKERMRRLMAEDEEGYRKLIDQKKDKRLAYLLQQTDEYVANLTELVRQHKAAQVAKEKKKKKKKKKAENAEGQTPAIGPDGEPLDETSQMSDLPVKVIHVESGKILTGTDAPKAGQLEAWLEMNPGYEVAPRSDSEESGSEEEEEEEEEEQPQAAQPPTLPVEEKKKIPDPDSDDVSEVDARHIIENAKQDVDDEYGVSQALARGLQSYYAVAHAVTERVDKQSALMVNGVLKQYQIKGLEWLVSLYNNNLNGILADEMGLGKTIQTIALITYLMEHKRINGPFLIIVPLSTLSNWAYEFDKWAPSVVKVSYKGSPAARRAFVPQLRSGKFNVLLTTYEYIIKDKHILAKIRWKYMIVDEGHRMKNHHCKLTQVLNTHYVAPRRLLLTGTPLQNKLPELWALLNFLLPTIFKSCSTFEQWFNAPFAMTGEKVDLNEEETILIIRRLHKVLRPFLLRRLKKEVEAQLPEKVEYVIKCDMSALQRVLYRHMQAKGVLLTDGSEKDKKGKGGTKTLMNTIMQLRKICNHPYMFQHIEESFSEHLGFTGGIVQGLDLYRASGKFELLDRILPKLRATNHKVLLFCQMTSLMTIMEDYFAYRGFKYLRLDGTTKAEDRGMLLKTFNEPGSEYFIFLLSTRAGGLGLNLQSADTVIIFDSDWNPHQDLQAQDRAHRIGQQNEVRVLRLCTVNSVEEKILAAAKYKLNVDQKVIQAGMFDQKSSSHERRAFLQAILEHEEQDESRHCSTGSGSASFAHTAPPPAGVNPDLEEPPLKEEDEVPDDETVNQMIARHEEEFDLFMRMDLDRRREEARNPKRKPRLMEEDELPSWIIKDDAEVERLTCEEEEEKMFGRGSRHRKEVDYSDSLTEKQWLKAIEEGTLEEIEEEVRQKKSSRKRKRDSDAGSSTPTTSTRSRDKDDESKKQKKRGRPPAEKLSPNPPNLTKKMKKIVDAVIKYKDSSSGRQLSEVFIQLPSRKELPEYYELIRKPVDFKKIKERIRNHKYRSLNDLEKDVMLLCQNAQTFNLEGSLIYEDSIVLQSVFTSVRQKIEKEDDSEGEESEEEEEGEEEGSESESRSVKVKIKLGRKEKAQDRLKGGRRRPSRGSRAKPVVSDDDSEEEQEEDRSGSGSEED

For `Nc1nnc(-c2ccccc2O)cc1OCC12CC(C(=O)N3CCN(CCOc4ccc5c(c4)C(=O)N(C4CCC(=O)NC4=O)C5=O)CC3)(C1)C2` (stereo not shown) [Compound 103, 5-(2-(4-(3-(((3-amino-6-(2-hydroxyphenyl)pyridazin-4-yl)oxy)methyl)bicyclo[1.1.1]pentane-1-carbonyl)piperazin-1-yl)ethoxy)-2-(2,6-dioxopiperidin-3-yl)isoindoline-1,3-dione; formic acid], the Dmax in assay [1] was under 50%. Further, the “BRM HiBit Degradation Maximum (%)” value in assay [2] is listed as “C (“C” indicates maximum degradation < 50%)”.
For `Nc1nnc(-c2ccccc2O)cc1OCC12CC(CNC(=O)C3CC3CNC(=O)COc3cccc4c3C(=O)N(C3CCC(=O)NC3=O)C4=O)(C1)C2` (stereo not shown) [Compound 12, N-[[3-([[3-amino-6-(2-hydroxyphenyl)pyridazin-4-yl]oxy]methyl)bicyclo[1.1.1]pentan-1-yl]methyl]-2-[(2-[[2-(2,6-dioxopiperidin-3-yl)-1,3-dioxoisoindol-4-yl]oxy]acetamido)methyl]cyclopropane-1-carboxamide], the Dmax in assay [1] was under 50%. Also, the “BRM HiBit Degradation Maximum (%)” value in assay [2] is on record as “C (“C” indicates maximum degradation < 50%)”.
For `Nc1nnc(-c2ccccc2O)cc1OCC12CC(C(=O)N3CCC4(CC3)CC(Oc3ccc5c(c3)C(=O)N(C3CCC(=O)NC3=O)C5=O)C4)(C1)C2` (stereo not shown) [Compound 53, 5-((7-(3-(((3-amino-6-(2-hydroxyphenyl)pyridazin-4-yl)oxy)methyl)bicyclo[1.1.1]pentane-1-carbonyl)-7-azaspiro[3.5]nonan-2-yl)oxy)-2-(2,6-dioxopiperidin-3-yl)isoindoline-1,3-dione], in that order: under 50% and “C (“C” indicates maximum degradation < 50%)”.
Regarding `Nc1nnc(-c2ccccc2O)cc1OCC12CC(C(=O)NCCNc3ccc4c(c3)C(=O)N(C3CCC(=O)NC3=O)C4=O)(C1)C2` (stereo not shown) [Compound 56, 3-(((3-amino-6-(2-hydroxyphenyl)pyridazin-4-yl)oxy)methyl)-N-(2-((2-(2,6-dioxopiperidin-3-yl)-1,3-dioxoisoindolin-5-yl)amino)ethyl)bicyclo[1.1.1]pentane-1-carboxamide], the Dmax in assay [1] was under 50%. Also, the “BRM HiBit Degradation Maximum (%)” value in assay [2] is given as “C (“C” indicates maximum degradation < 50%)”.
For `Nc1nnc(-c2ccccc2O)cc1OCC12CC(C(=O)N3CCN(CC4CN(c5ccc6c(c5)C(=O)N(C5CCC(=O)NC5=O)C6=O)C4)CC3)(C1)C2` (stereo not shown) [Compound 102, 5-(3-((4-(3-(((3-amino-6-(2-hydroxyphenyl)pyridazin-4-yl)oxy)methyl)bicyclo[1.1.1]pentane-1-carbonyl)piperazin-1-yl)methyl)azetidin-1-yl)-2-(2,6-dioxopiperidin-3-yl)isoindoline-1,3-dione], the Dmax in assay [1] is under 50%. Further, in assay [2], the “BRM HiBit Degradation Maximum (%)” value was “B (“B” indicates maximum degradation ≥ 50%)”.
Taken in the same sequence, the figures for `Nc1nnc(-c2ccccc2O)cc1OCC12CC(C(=O)NCCOCCOCCOCCNC(=O)COc3ccc4c(c3)C(=O)N(C3CCC(=O)NC3=O)C4=O)(C1)C2` (stereo not shown) [Compound 93, 3-(((3-amino-6-(2-hydroxyphenyl)pyridazin-4-yl)oxy)methyl)-N-(1-((2-(2,6-dioxopiperidin-3-yl)-1,3-dioxoisoindolin-5-yl)oxy)-2-oxo-6,9,12-trioxa-3-azatetradecan-14-yl)bicyclo[1.1.1]pentane-1-carboxamide] were under 50% and “C (“C” indicates maximum degradation < 50%)”.
Turning to `Cc1ncsc1-c1ccc(CNC(=O)[C@@H]2C[C@@H](O)CN2C(=O)[C@@H](NC(=O)CCCCCCCCCNC(=O)C23CC(COc4cc(-c5ccccc5O)nnc4N)(C2)C3)C(C)(C)C)cc1` [Compound 72, (2S,4R)-1-((S)-2-(10-(3-(((3-amino-6-(2-hydroxyphenyl)pyridazin-4-yl)oxy)methyl)bicyclo[1.1.1]pentane-1-carboxamido)decanamido)-3,3-dimethylbutanoyl)-4-hydroxy-N-(4-(4-methylthiazol-5-yl)benzyl)pyrrolidine-2-carboxamide], the Dmax in assay [1] is under 50%. Also, the “BRM HiBit Degradation Maximum (%)” value in assay [2] is recorded as “B (“B” indicates maximum degradation ≥ 50%)”.
As to `Nc1nnc(-c2ccccc2O)cc1OCC12CC(CNC(=O)CCCOc3cccc4c3C(=O)N(C3CCC(=O)NC3=O)C4=O)(C1)C2` (stereo not shown) [Compound 2, N-[[3-([[3-amino-6-(2-hydroxyphenyl)pyridazin-4-yl]oxy]methyl)bicyclo[1.1.1]pentan-1-yl]methyl]-4-[[2-(2,6-dioxopiperidin-3-yl)-1,3-dioxoisoindol-4-yl]oxy]butanamide], the Dmax in assay [1] is under 50%. Also, the “BRM HiBit Degradation Maximum (%)” value in assay [2] was “C (“C” indicates maximum degradation < 50%)”.
On to `Nc1nnc(-c2ccccc2O)cc1OCC12CC(C(=O)NCCCC#Cc3cccc4c3C(=O)N(C3CCC(=O)NC3=O)C4=O)(C1)C2` (stereo not shown) [Compound 88, 3-(((3-amino-6-(2-hydroxyphenyl)pyridazin-4-yl)oxy)methyl)-N-(5-(2-(2,6-dioxopiperidin-3-yl)-1,3-dioxoisoindolin-4-yl)pent-4-yn-1-yl)bicyclo[1.1.1]pentane-1-carboxamide], for which the Dmax in assay [1] is under 50%. Further, the “BRM HiBit Degradation Maximum (%)” value in assay [2] is on record as “C (“C” indicates maximum degradation < 50%)”.
For the compound `Nc1nnc(-c2ccccc2O)cc1OCC12CC(CNC(=O)CCCCCCCCNc3ccc4c(c3)C(=O)N(C3CCC(=O)NC3=O)C4=O)(C1)C2` (stereo not shown) [Compound 9, N-[[3-([[3-amino-6-(2-hydroxyphenyl)pyridazin-4-yl]oxy]methyl)bicyclo[1.1.1]pentan-1-yl]methyl]-9-[[2-(2,6-dioxopiperidin-3-yl)-1,3-dioxoisoindol-5-yl]amino]nonanamide], the Dmax in assay [1] is under 50%. For the same compound, the “BRM HiBit Degradation Maximum (%)” value in assay [2] is “C (“C” indicates maximum degradation < 50%)”.
With `Nc1nnc(-c2ccccc2O)cc1OCCC12CC(NC(=O)CCOCCOCCNc3cccc4c3C(=O)N(C3CCC(=O)NC3=O)C4=O)(C1)C2` (stereo not shown) [Compound 27, N-[3-(2-[[3-amino-6-(2-hydroxyphenyl)pyridazin-4-yl]oxy]ethyl)bicyclo[1.1.1]pentan-1-yl]-3-[2-(2-[[2-(2,6-dioxopiperidin-3-yl)-1,3-dioxoisoindol-4-yl]amino]ethoxy)ethoxy]propanamide], the Dmax in assay [1] is under 50%. Besides, the “BRM HiBit Degradation Maximum (%)” value in assay [2] is given as “C (“C” indicates maximum degradation < 50%)”.
Turning to `Nc1nnc(-c2ccccc2O)cc1OCC12CC(C(=O)NCCCCCCNc3ccc4c(c3)C(=O)N(C3CCC(=O)NC3=O)C4=O)(C1)C2` (stereo not shown) [Compound 64, 3-(((3-amino-6-(2-hydroxyphenyl)pyridazin-4-yl)oxy)methyl)-N-(6-((2-(2,6-dioxopiperidin-3-yl)-1,3-dioxoisoindolin-5-yl)amino)hexyl)bicyclo[1.1.1]pentane-1-carboxamide], the Dmax in assay [1] is under 50%. In addition, the “BRM HiBit Degradation Maximum (%)” value in assay [2] is listed as “C (“C” indicates maximum degradation < 50%)”.
Taken in the same sequence, the figures for `Nc1nnc(-c2ccccc2O)cc1OCCC12CC(NC(=O)C3CC3CNC(=O)COc3ccc4c(c3)C(=O)N(C3CCC(=O)NC3=O)C4=O)(C1)C2` (stereo not shown) [Compound 29, N-(3-(2-((3-amino-6-(2-hydroxyphenyl)pyridazin-4-yl)oxy)ethyl)bicyclo[1.1.1]pentan-1-yl)-2-((2-((2-(2,6-dioxopiperidin-3-yl)-1,3-dioxoisoindolin-5-yl)oxy)acetamido)methyl)cyclopropane-1-carboxamide] were under 50% and “C (“C” indicates maximum degradation < 50%)”.
For `Nc1nnc(-c2ccccc2O)cc1OCC12CC(C(=O)NCCC3CCN(c4ccc5c(c4)C(=O)N(C4CCC(=O)NC4=O)C5=O)CC3)(C1)C2` (stereo not shown) [Compound 104, 3-(((3-amino-6-(2-hydroxyphenyl)pyridazin-4-yl)oxy)methyl)-N-(2-(1-(2-(2,6-dioxopiperidin-3-yl)-1,3-dioxoisoindolin-5-yl)piperidin-4-yl)ethyl)bicyclo[1.1.1]pentane-1-carboxamide], in that order: under 50% and “C (“C” indicates maximum degradation < 50%)”.
For `Nc1nnc(-c2ccccc2O)cc1OCC12CC(CNC(=O)C3CC3CNC(=O)COc3ccc4c(c3)C(=O)N(C3CCC(=O)NC3=O)C4=O)(C1)C2` (stereo not shown) [Compound 13, N-[[3-([[3-amino-6-(2-hydroxyphenyl)pyridazin-4-yl]oxy]methyl)bicyclo[1.1.1]pentan-1-yl]methyl]-2-[(2-[[2-(2,6-dioxopiperidin-3-yl)-1,3-dioxoisoindol-5-yl]oxy]acetamido)methyl]cyclopropane-1-carboxamide], in that order: under 50% and “C (“C” indicates maximum degradation < 50%)”.
Consider `Cc1ncsc1-c1ccc(CNC(=O)[C@@H]2C[C@@H](O)CN2C(=O)[C@@H](NC(=O)CCCCCNC(=O)C23CC(COc4cc(-c5ccccc5O)nnc4N)(C2)C3)C(C)(C)C)cc1` [Compound 70, (2S,4R)-1-((S)-2-(6-(3-(((3-amino-6-(2-hydroxyphenyl)pyridazin-4-yl)oxy)methyl)bicyclo[1.1.1]pentane-1-carboxamido)hexanamido)-3,3-dimethylbutanoyl)-4-hydroxy-N-(4-(4-methylthiazol-5-yl)benzyl)pyrrolidine-2-carboxamide], for which the Dmax in assay [1] was under 50%. In assay [2], the “BRM HiBit Degradation Maximum (%)” value is listed as “B (“B” indicates maximum degradation ≥ 50%)”.
Turning to `Nc1nnc(-c2ccccc2O)cc1OCCC12CC(NC(=O)CCCCCCCCCCNc3cccc4c3C(=O)N(C3CCC(=O)NC3=O)C4=O)(C1)C2` (stereo not shown) [Compound 24, N-[3-(2-[[3-amino-6-(2-hydroxyphenyl)pyridazin-4-yl]oxy]ethyl)bicyclo[1.1.1]pentan-1-yl]-11-[[2-(2,6-dioxopiperidin-3-yl)-1,3-dioxoisoindol-4-yl]amino]undecanamide], the Dmax in assay [1] was under 50%. The “BRM HiBit Degradation Maximum (%)” value in assay [2] is “C (“C” indicates maximum degradation < 50%)”.
